From US4442031A, “Immunopotentiating peptides” (Hoffmann-La Roche Inc., priority 1983, dated 1984)
Where no end group is shown, it is not given here.

Tested on: Candida albicans ATCC 10231
Test: Protective activity against Candida albicans infection in 5-FU immunosuppressed mice
Type: in vivo
Conditions: for Survivors Day 8 / Survivors Day 15: ddY mice; for Survivors at Day 8 after infection: Table 6, i.p., ten times with 5-FU, control 1/7
Method: In a series of examples, the compounds of formula I were tested for protective activity against opportunistic infections in immunosuppressed mice. Female ddY mice (6 weeks old) weighing about 26 g were pretreated daily for ten days with 5-fluorouracil (5-FU) (25 mg/kg/day, i.p.) and with thymosin α1 or with compounds of formula I (i.p.) at varying dosages. The mice were then infected with Candida albicans ATCC 10231 (1×10^5 cells or more) at 24 hour after the last treatment. One control group was administered 5-FU and saline solution and a second control group received neither 5-FU nor compound of formula I prior to infection with Candida albicans. The number of animals surviving eight days after infection with Candida albicans and 15 days after infection with Candida albicans is presented in the table below.
Normal mice (female ddY mice, 6 weeks old) were highly tolerant to infection with Candida albicans ATCC 10231 at relatively low dose (1-2×10^5 cells, iv.). However, when pretreated daily for ten times with 5-FU (25 mg/kg/day, ip.), the mice were susceptible to infection as shown in Table 6. […] Compound A was also shown to be active against infection with Pseudomonas aeruginosa 5E81-1 and Listeria monocytogenes EGD in the immunosuppressed mice (see Tables 7 and 8).

[1] = Example 8, 0.4 μg/kg i.p. daily for ten days with 5-FU
[2] = Example 8, 4.0 μg/kg i.p. daily for ten days with 5-FU
[3] = Example 8, 40.0 μg/kg i.p. daily for ten days with 5-FU
[4] = Example 9, 40.0 μg/kg i.p. daily for ten days with 5-FU
[5] = Example 10, 0.04 μg/kg i.p. daily for ten days with 5-FU
[6] = Example 10, 0.4 μg/kg i.p. daily for ten days with 5-FU
[7] = Example 10, 4.0 μg/kg i.p. daily for ten days with 5-FU
[8] = Example 11, 0.04 μg/kg i.p. daily for ten days with 5-FU
[9] = Example 11, 0.4 μg/kg i.p. daily for ten days with 5-FU
[10] = Example 11, 4.0 μg/kg i.p. daily for ten days with 5-FU
[11] = Example 10, 40.0 μg/kg i.p. daily for ten days with 5-FU
[12] = Example 11, 40.0 μg/kg i.p. daily for ten days with 5-FU
[13] = Example 11, 400.0 μg/kg i.p. daily for ten days with 5-FU

Substance | Survivors Day 8 [3] | Survivors Day 15 [3] | Survivors Day 8 [4] | Survivors Day 8 [6] | Survivors Day 15 [6] | Survivors Day 8 [7] | Survivors Day 15 [7] | Survivors Day 8 [10] | Survivors Day 15 [10] | Survivors at Day 8 after infection (40 μg/kg/day) | further results
KKEVVE [Compound A, L-Lysyl-L-lysyl-L-glutamyl-L-valyl-L-valyl-L-glutamic acid] | 5/7 | 2/7 | 4/7 | 9/10 | 8/10 | 9/10 | 8/10 | 9/10 | 8/10 | 4/7 | Survivors Day 8 [1]: 6/7; Survivors Day 15 [1]: 5/7; Survivors Day 8 [2]: 5/7; Survivors Day 15 [2]: 4/7; Survivors Day 8 (Example 9, 0.4 μg/kg i.p. daily for ten days with 5-FU): 6/7; Survivors Day 8 (Example 9, 4.0 μg/kg i.p. daily for ten days with 5-FU): 5/7; Survivors Day 8 [5]: 6/10; Survivors Day 15 [5]: 4/10; Survivors Day 8 [8]: 6/10; Survivors Day 15 [8]: 4/10; Survivors Day 8 [9]: 9/10; Survivors Day 15 [9]: 8/10; Survivors at Day 8 after infection (0.4 μg/kg/day): 6/7; Survivors at Day 8 after infection (4 μg/kg/day): 5/7
thymosin α1 (SDAAVDTSSEITTKDLKEKKEVVEEAEN; ends and bridges not checked; UniProt P01252 2-29, looked up) [peptide isolated from bovine thymus, stimulates maturation, differentiation and function of T cells; U.S. Pat. No. 4,079,127, reference compound] | 5/7 | 5/7 | 4/7 | 3/10 | 3/10 | 6/10 | 5/10 | 3/10 | 3/10 | 4/7 | Survivors Day 8 [11]: 9/10; Survivors Day 15 [11]: 8/10; Survivors Day 8 [12]: 6/10; Survivors Day 15 [12]: 5/10; Survivors Day 8 [13]: 8/10; Survivors Day 15 [13]: 8/10
